We go through two compounds from patent US20060211765A1, “Novel compounds” (ASTRAZENECA AB, priority 2003, published 2006).

The target of this assay is T1, rhCRTh2 (Homo sapiens, UniProt Q9Y5Y4).
T1 construct: expressed in transfected cells; host or cells: HEK cells (membrane preparation)
T1 sequence (Q9Y5Y4 1-395): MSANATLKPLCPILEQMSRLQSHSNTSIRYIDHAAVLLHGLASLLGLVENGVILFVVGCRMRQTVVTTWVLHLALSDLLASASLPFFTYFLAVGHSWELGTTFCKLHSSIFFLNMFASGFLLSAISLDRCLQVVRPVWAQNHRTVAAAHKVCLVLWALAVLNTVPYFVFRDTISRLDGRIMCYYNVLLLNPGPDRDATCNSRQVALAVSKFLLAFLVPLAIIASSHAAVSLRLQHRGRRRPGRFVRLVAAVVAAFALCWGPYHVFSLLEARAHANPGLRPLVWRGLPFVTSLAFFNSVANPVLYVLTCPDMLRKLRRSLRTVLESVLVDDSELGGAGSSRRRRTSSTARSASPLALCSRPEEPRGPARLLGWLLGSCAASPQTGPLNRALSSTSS
Briefly: Ligand Binding Assay ([3H]PGD2 SPA on HEK cell membranes). To be noted: [3H]PGD2 displacement, HEK cell membranes expressing rhCRTh2/Gα16, SPA beads. Here is the method:
[^3H]PGD2 was purchased from Perkin Elmer Life Sciences with a specific activity of 100-210 Ci/mmol. All other chemicals were of analytical grade.
HEK cells expressing rhCRTh2/Gα16 were routinely maintained in DMEM containing 10% Foetal Bovine Serum (HyClone), 1 mg/ml geneticin, 2 mM L-glutamine and 1% non-essential amino acids. For the preparation of membranes, the adherent transfected HEKcells were grown to confluence in two layer tissue culture factories (Fisher, catalogue number TKT-170-070E). Maximal levels of receptor expression were induced by addition of […] sodium butyrate for the last 18 hours of culture. […] The final pellet was re-suspended in 4 ml of membrane homogenisation buffer per cell factory used and the protein content determined. […]
All assays were performed in Corning clear bottomed, white 96-well NBS plates (Fisher). […] (The optimum coating concentrations were determined for each batch of membranes) The beads were pelleted by centrifugation (800×g for 7 minutes at 4° C.), washed once with assay buffer (50 mM HEPES pH 7.4 containing 5 mM magnesium chloride) and finally re-suspended in assay buffer at a bead concentration of 10 mg/ml. […]

SMILES strings stand for the structures.

The term IC50 denotes the concentration that gives 50% inhibition. In turn, `CCc1ccc(OCC(=O)O)c(-c2ccc(S(C)(=O)=O)cc2)c1` [Example 2, {[5-Ethyl-4′-(methylsulfonyl)biphenyl-2-yl]oxy}acetic acid] had an IC50 of 79.4 nM.

As to `CCS(=O)(=O)c1ccc(-c2cc(OC)ccc2OCC(=O)O)cc1` [Example 3, {[4′-(Ethylsulfonyl)-5-methoxybiphenyl-2-yl]oxy}acetic acid], the IC50 is 251 nM.
